Source: patent US10105357B2, “Indication of antibiotic drugs for preparation of cancer inhibition pharmaceutical composition” (LAUNX BIOMEDICAL CO., LTD., priority 2014, dated 2018)

Legend:
[1] = system: A549 (Lung Adenocarcinoma); assay: Cell viability analysis, lung cancer A549; format: cell-based, human
[2] = system: MKN-45 (Gastric Adenocarcinoma); assay: Cell viability analysis, gastric cancer MKN-45; format: cell-based, human
[3] = system: MCF7 (Mammary Gland, Adenocarcinoma); assay: Cell viability analysis, breast cancer MCF7; format: cell-based, human
[4] = system: AGS (Gastric Adenocarcinoma); assay: Cell viability analysis, gastric cancer AGS; format: cell-based, human
[5] = system: T24; assay: Cell viability analysis, bladder cancer T24; format: cell-based, human
[6] = system: MDA-MB-231 (Mammary Gland, Adenocarcinoma); assay: Cell viability analysis, breast cancer MDA-MB-231; format: cell-based, human
[7] = system: HeLa (Cervix Adenocarcinoma); assay: Cell viability analysis, cervical cancer HeLa; format: cell-based, human
[8] = system: A375 (Amelanotic Melanoma); assay: Cell viability analysis, skin cancer A375; format: cell-based, human
[9] = system: HI650 (Lung Adenocarcinoma); assay: Cell viability analysis, lung cancer HI650; format: cell-based, human
[10] = system: HCT116 (p53+) (Colorectal Carcinoma)
[11] = system: 786-O (Renal adenocarcinoma); assay: Cell viability analysis, renal cancer 786-O; format: cell-based, human
[12] = system: BCC (basal cell carcinoma); assay: Cell viability analysis, skin cancer BCC; format: cell-based, human
[13] = system: TOV-21G; assay: Cell viability analysis, ovarian cancer TOV-21G; format: cell-based, human
[14] = system: U-2OS; assay: Cell viability analysis, osteosarcoma U-2OS; format: cell-based, human
[15] = system: BxPC-3; assay: Cell viability analysis, pancreatic cancer BxPC-3; format: cell-based, human
[16] = system: LoVo (Colorectal Adenocarcinoma); assay: Cell viability analysis, colon cancer LoVo; format: cell-based, human
[17] = system: C-33A (Cervical carcinoma); assay: Cell viability analysis, cervical cancer C-33A; format: cell-based, human
[18] = system: Hep3B (hepatocellular carcinoma); assay: Cell viability analysis, hepatic cancer Hep3B; format: cell-based, human
[19] = system: SAS (Tongue squamous cell carcinoma); assay: Cell viability analysis, tongue cancer SAS; format: cell-based, human
[20] = system: AsPC-1; assay: Cell viability analysis, pancreatic cancer AsPC-1; format: cell-based, human
[21] = system: TSGH-8301 (Urinary Bladder Carcinoma); assay: Cell viability analysis, bladder cancer TSGH-8301; format: cell-based, human
[22] = system: NIH: OVCAR-3; assay: Cell viability analysis, ovarian cancer NIH: OVCAR-3; format: cell-based, human
[23] = system: HepG2 (Hepatocellular Carcinoma); assay: Cell viability analysis, hepatic cancer HepG2; format: cell-based, human
[24] = system: PC3 (p53−) (Prostate Adenocarcinoma); assay: Cell viability analysis, prostate cancer PC3; format: cell-based, human

Row | SMILES | The results of antibiotic drug inhibiting cancer cell lines (cell viability analysis), A549 [1] | The results of antibiotic drug inhibiting cancer cell lines (cell viability analysis), MKN-45 [2] | The results of antibiotic drug inhibiting cancer cell lines (cell viability analysis), MCF-7 [3] | The results of antibiotic drug inhibiting cancer cell lines (cell viability analysis), AGS [4] | The results of antibiotic drug inhibiting cancer cell lines (cell viability analysis), T24 [5] | The results of antibiotic drug inhibiting cancer cell lines (cell viability analysis), MDA-MB231 [6] | The results of antibiotic drug inhibiting cancer cell lines (cell viability analysis), HeLa [7] | The results of antibiotic drug inhibiting cancer cell lines (cell viability analysis), A375 [8] | The results of antibiotic drug inhibiting cancer cell lines (cell viability analysis), H1650 [9] | viability [10] | The results of antibiotic drug inhibiting cancer cell lines (cell viability analysis), 786-O [11] | The results of antibiotic drug inhibiting cancer cell lines (cell viability analysis), BCC [12] | The results of antibiotic drug inhibiting cancer cell lines (cell viability analysis), TOV-21G [13] | The results of antibiotic drug inhibiting cancer cell lines (cell viability analysis), U2OS [14] | The results of antibiotic drug inhibiting cancer cell lines (cell viability analysis), BxPC-3 [15] | The results of antibiotic drug inhibiting cancer cell lines (cell viability analysis), LoVo [16] | The results of antibiotic drug inhibiting cancer cell lines (cell viability analysis), C-33A [17] | The results of antibiotic drug inhibiting cancer cell lines (cell viability analysis), Hep3B [18] | The results of antibiotic drug inhibiting cancer cell lines (cell viability analysis), SAS [19] | The results of antibiotic drug inhibiting cancer cell lines (cell viability analysis), AsPC-1 [20] | further results
1 | Cl.c1ccc([C@H]2CN3CCSC3=N2)cc1 [Levamisole Hydrochloride (Ergamisol)] | 104.9 | 112.3 | 102.4 | 120.5 | 92.87 | 102.7 | 137 | 113.9 | 78.34 | 116% | 93.24 | 114.1 | 83.45 | 79.87 | 68.02 | 100.7 | 96.19 | 121.1 | 89.56 | 85.72 | The results of antibiotic drug inhibiting cancer cell lines (cell viability analysis), TSGH-8301 [21]: 106.8; The results of antibiotic drug inhibiting cancer cell lines (cell viability analysis), NIH-OVCAR-3 [22]: 105.6; The results of antibiotic drug inhibiting cancer cell lines (cell viability analysis), HepG2 [23]: 127.7; The results of antibiotic drug inhibiting cancer cell lines (cell viability analysis), PC-3 [24]: 125.7
2 | Cc1cc(C#N)cc(C)c1Oc1nc(Nc2ccc(C#N)cc2)nc(N)c1Br [Etravirine (TMC125)] | 37 | 62.38 | 56.33 | 49.66 | 56.73 | 95.38 | 47.73 | 37.32 | 51.13 | 54.1% | 59.38 | 46.3 | 28.26 | 36.38 | 41.88 | 45.66 | 63.88 | 78.35 | 34.01 | 41.11 | The results of antibiotic drug inhibiting cancer cell lines (cell viability analysis), TSGH-8301 [21]: 56.13; The results of antibiotic drug inhibiting cancer cell lines (cell viability analysis), NIH-OVCAR-3 [22]: 64.29; The results of antibiotic drug inhibiting cancer cell lines (cell viability analysis), HepG2 [23]: 68.31; The results of antibiotic drug inhibiting cancer cell lines (cell viability analysis), PC-3 [24]: 53.42
